One data set has as its target TIE-2 (Homo sapiens, UniProt Q02763). Kind of data set: Tie-2 kinase flashplate assay (phosphorylation of poly(Glu, Tyr) with 33P-ATP). The data set is classed as biochemical. Conditions: read-out: Inhibition of TIE-2 IC50. The procedure: The TIE-2 tests can be carried out, for example, analogously to the methods indicated in WO 02/44156.
The assay determines the inhibiting activity of the substances to be tested in the phosphorylation of the substrate poly(Glu, Tyr) by Tie-2 kinase in the presence of radioactive ^33P-ATP. The phosphorylated substrate binds to the surface of a “flashplate” microtitre plate during the incubation time. After removal of the reaction mixture, the microtitre plate is washed a number of times and the radioactivity on its surface is subsequently measured. An inhibiting effect of the substances to be measured results in lower radioactivity compared with an undisturbed enzymatic reaction.

The next data set deals with RAF. Kind of data set: Inhibition of RAF. The data set is classed as biochemical.

SMILES strings stand for the structures.

Consider 4 compounds from patent publication US20080045529A1, “Use Of Thienopyrimidines” (MERCK PATENT GMBH, priority 2003, published 2008).

TIE-2, sequence (Q02763 23-1124, species assumed): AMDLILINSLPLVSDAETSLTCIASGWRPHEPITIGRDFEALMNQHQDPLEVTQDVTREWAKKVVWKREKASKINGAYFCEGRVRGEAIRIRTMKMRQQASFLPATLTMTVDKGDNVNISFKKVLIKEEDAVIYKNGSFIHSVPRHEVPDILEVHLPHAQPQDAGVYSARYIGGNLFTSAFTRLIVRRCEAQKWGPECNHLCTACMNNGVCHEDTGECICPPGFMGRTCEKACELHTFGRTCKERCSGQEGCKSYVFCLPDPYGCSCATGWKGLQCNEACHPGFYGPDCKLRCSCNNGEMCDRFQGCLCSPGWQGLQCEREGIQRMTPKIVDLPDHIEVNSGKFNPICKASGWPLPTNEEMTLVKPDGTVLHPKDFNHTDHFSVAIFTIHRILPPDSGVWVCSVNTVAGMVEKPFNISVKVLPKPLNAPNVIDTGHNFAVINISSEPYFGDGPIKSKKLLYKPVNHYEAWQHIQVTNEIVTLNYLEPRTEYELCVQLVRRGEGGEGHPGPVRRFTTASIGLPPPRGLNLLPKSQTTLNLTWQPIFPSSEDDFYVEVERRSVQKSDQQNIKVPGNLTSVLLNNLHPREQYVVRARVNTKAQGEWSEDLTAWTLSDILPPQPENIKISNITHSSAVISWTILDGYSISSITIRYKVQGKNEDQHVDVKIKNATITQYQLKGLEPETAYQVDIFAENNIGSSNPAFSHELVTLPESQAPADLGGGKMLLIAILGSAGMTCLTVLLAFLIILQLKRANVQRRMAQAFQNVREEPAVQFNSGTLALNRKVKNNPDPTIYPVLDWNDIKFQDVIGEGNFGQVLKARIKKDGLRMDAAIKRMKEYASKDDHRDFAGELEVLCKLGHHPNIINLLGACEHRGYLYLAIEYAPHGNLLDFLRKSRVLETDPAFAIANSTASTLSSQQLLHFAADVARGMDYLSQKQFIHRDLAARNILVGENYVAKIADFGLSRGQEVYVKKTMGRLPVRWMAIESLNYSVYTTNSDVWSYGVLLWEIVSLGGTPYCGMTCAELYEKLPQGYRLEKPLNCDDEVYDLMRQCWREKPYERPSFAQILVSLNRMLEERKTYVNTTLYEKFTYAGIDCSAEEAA

As for `c1cnn(-c2nc(NCc3ccc4c(c3)OCO4)c3c4c(sc3n2)CCCC4)c1`, the 50% inhibitory concentration (IC50) on TIE-2 was 0.15 µM.
In turn, `Cc1cc2c(NCc3ccc4c(c3)OCO4)nc(-n3ccnc3)nc2s1` [Example 2, 2-(imidazol-1-yl)-6-methyl-4-(3,4-methylenedioxybenzylamino)thieno[2,3-d]pyrimidine] showed a melting point of 248 to 250 °C.
Take `c1cc2c(cc1CNc1nc(N3CCOCC3)nc3sc4c(c13)CCCC4)OCO2`: the IC50 in the data set with RAF came to 4.3 µM.
The same measure, in the same setting: as for `Cc1sc2nc(N3CCOCC3)nc(NCc3ccc4c(c3)OCO4)c2c1C`, the figure is 5.3 µM.
